From ChEMBL document CHEMBL3817752, “Antimycobacterial activity of new N(1)-[1-[1-aryl-3-[4-(1H-imidazol-1-yl)phenyl]-3-oxo]propyl]-pyridine-2-carboxamidrazone derivatives” (Bioorg Med Chem Lett, 2016)
Values after ≈ are worked out from the molar mass of the structure shown. Active and inactive are the calls of the source. No cut-off for these calls is given here.

Columns and labels:
Mycobacterium gordonae = assay: Antimycobacterial activity against Mycobacterium gordonae NCTC 10267 after 7 days by resazurin microtiter assay; assay type: functional; conditions: NCTC 10267, 168 h
[1] = tested on: Mycobacterium scrofulaceum; assay: Antimycobacterial activity against Mycobacterium scrofulaceum NCTC 10803 after 7 days by resazurin microtiter assay; assay type: functional; conditions: 168 h
Mycobacterium kansasii = assay: Antimycobacterial activity against Mycobacterium kansasii NCTC 10268 after 7 days by resazurin microtiter assay; assay type: functional; conditions: NCTC 10268, 168 h
Mycobacterium marinum = assay: Antimycobacterial activity against Mycobacterium marinum CIP 6423 after 7 days by resazurin microtiter assay; assay type: functional; conditions: CIP 6423, 168 h
Mycobacterium avium = assay: Antimycobacterial activity against Mycobacterium avium NCTC 08559 after 7 days by resazurin microtiter assay; assay type: functional; conditions: NCTC 08559, 168 h
[2] = Cytotoxicity against African green monkey Vero cells after 72 hrs by MTT assay; assay type: cell-based; conditions: chlorocebus sabaeus
[3] = target: T1, Sterol 14alpha-demethylase (Mycobacterium tuberculosis) (UniProt P9WPP9); assay: Binding affinity to N-terminal His-tagged Mycobacterium tuberculosis H37Rv ATCC 25618 CYP51 expressed in Escherichia coli Rosetta (DE3) by spectrophotometric analysis
T1 sequence (whole entry): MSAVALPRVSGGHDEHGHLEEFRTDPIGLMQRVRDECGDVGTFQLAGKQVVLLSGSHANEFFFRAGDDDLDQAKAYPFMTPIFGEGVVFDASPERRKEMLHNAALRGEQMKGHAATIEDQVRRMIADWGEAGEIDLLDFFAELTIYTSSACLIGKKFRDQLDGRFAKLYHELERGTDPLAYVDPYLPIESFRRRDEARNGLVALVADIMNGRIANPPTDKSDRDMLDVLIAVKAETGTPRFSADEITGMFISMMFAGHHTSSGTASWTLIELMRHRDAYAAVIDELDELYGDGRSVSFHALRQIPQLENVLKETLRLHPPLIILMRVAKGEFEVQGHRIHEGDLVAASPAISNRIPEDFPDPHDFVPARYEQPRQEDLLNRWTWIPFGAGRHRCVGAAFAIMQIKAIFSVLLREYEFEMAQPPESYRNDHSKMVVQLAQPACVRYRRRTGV

Staphylococcus aureus [4] = assay: Antimicrobial activity against Staphylococcus aureus ATCC 25923 at 20 ug per disk after 18 to 24 hrs by agar diffusion assay; assay type: functional; conditions: read-out: DIZ
Escherichia coli [5] = assay: Antimicrobial activity against Escherichia coli ATCC 25922 at 20 ug per disk after 18 to 24 hrs by agar diffusion assay; assay type: functional; conditions: read-out: DIZ
Candida albicans [6] = assay: Antimicrobial activity against Candida albicans 685 clinical isolate at 20 ug per disk after 18 to 24 hrs by agar diffusion assay; assay type: functional; conditions: read-out: DIZ
[7] = tested on: Mycobacterium tuberculosis; assay: Antimycobacterial activity against Mycobacterium tuberculosis H37Ra […] after 7 days by resazurin microtiter assay; assay type: functional; conditions: 168 h
[8] = tested on: Mycobacterium intracellulare; assay: Antimycobacterial activity against Mycobacterium intracellulare NCTC 10425 after 7 days by resazurin microtiter assay; assay type: functional; conditions: NCTC 10425, 168 h
Candida albicans [9] = assay: Antimicrobial activity against Candida albicans 685 clinical isolate at 5 ug per disk after 18 to 24 hrs by agar diffusion assay; assay type: functional; conditions: read-out: DIZ
[10] = Selectivity index, ratio of CC50 for African green monkey Vero cells to MIC for Mycobacterium tuberculosis H37Ra […]; assay type: toxicity, cell-based; conditions: read-out: Selectivity Index
Staphylococcus aureus [11] = assay: Antimicrobial activity against Staphylococcus aureus ATCC 25923 at 30 ug per disk after 18 to 24 hrs by agar diffusion assay; assay type: functional; conditions: read-out: DIZ
Escherichia coli [12] = assay: Antimicrobial activity against Escherichia coli ATCC 25922 at 30 ug per disk after 18 to 24 hrs by agar diffusion assay; assay type: functional; conditions: read-out: DIZ

SMILES	MIC (Mycobacterium gordonae) [µM]	MIC [1] [µM]	MIC (Mycobacterium kansasii) [µM]	MIC (Mycobacterium marinum) [µM]	MIC (Mycobacterium avium) [µM]	CC50 at 72 h [2] [µM]	Activity [3]	zone of inhibition at 20 µg/disc (Staphylococcus aureus [4]) [mm]	zone of inhibition at 20 µg/disc (Escherichia coli [5]) [mm]	zone of inhibition at 20 µg/disc (Candida albicans [6]) [mm]	MIC [7] [µM]	MIC [8] [µM]	zone of inhibition at 5 µg/disc (Candida albicans [9]) [mm]	selectivity ratio [10]	zone of inhibition at 30 µg/disc (Staphylococcus aureus [11]) [mm]	zone of inhibition at 30 µg/disc (Escherichia coli [12]) [mm]
N/C(=N/NC(CC(=O)c1ccc(-n2ccnc2)cc1)c1ccccc1[N+](=O)[O-])c1ccccn1 (stereo not given)	8.8 (≈ 4.01 µg/mL)	8.8 (≈ 4.01 µg/mL)	17.6 (≈ 8.02 µg/mL)	35.1 (≈ 16 µg/mL)	70.3 (≈ 32 µg/mL)	48	inactive	13	6	4	8.8 (≈ 4.01 µg/mL)	140 (≈ 63.8 µg/mL)	–	–	–	–
N/C(=N/NC(CC(=O)c1ccc(-n2ccnc2)cc1)c1cccc(Br)c1)c1ccccn1 (stereo not given)	2 (≈ 0.979 µg/mL)	32.7 (≈ 16 µg/mL)	16.3 (≈ 7.98 µg/mL)	16.3 (≈ 7.98 µg/mL)	131 (≈ 64.1 µg/mL)	51.3	inactive	19	8	13	16.3 (≈ 7.98 µg/mL)	131 (≈ 64.1 µg/mL)	–	–	–	–
Clc1ccc(COC(Cn2ccnc2)c2ccc(Cl)cc2Cl)cc1 (stereo not given)	–	–	–	–	–	–	Active	–	–	–	–	–	–	–	–	–
N/C(=N/NC(CC(=O)c1ccc(-n2ccnc2)cc1)c1cccc([N+](=O)[O-])c1)c1ccccn1 (stereo not given)	8.8 (≈ 4.01 µg/mL)	8.8 (≈ 4.01 µg/mL)	8.8 (≈ 4.01 µg/mL)	35.1 (≈ 16 µg/mL)	140 (≈ 63.8 µg/mL)	28.7	inactive	13	5	10	4.4 (≈ 2 µg/mL)	> 140	–	–	–	–
N/C(=N/NC(CC(=O)c1ccc(-n2ccnc2)cc1)c1ccccc1Br)c1ccccn1 (stereo not given)	8.2 (≈ 4.01 µg/mL)	16.3 (≈ 7.98 µg/mL)	16.3 (≈ 7.98 µg/mL)	16.3 (≈ 7.98 µg/mL)	65.4 (≈ 32 µg/mL)	29	inactive	19	5	8	32.7 (≈ 16 µg/mL)	131 (≈ 64.1 µg/mL)	–	–	–	–
N/C(=N/NC(CC(=O)c1ccc(-n2ccnc2)cc1)c1ccccc1F)c1ccccn1 (stereo not given)	4.7 (≈ 2.01 µg/mL)	18.7 (≈ 8.01 µg/mL)	18.7 (≈ 8.01 µg/mL)	18.7 (≈ 8.01 µg/mL)	74.7 (≈ 32 µg/mL)	62.1	inactive	14	7	5	17.6 (≈ 7.54 µg/mL)	74.7 (≈ 32 µg/mL)	–	–	–	–
N/C(=N/NC(CC(=O)c1ccc(-n2ccnc2)cc1)c1ccccc1Cl)c1ccccn1 (stereo not given)	18 (≈ 8.01 µg/mL)	18 (≈ 8.01 µg/mL)	18 (≈ 8.01 µg/mL)	18 (≈ 8.01 µg/mL)	72 (≈ 32 µg/mL)	53.2	inactive	20	6	7	36 (≈ 16 µg/mL)	144 (≈ 64.1 µg/mL)	–	–	–	–
C[C@@H]1[C@H](O)[C@@H](C)/C=C/C=C/C=C/C=C/C=C/C=C/C=C/[C@H](O[C@@H]2O[C@H](C)[C@@H](O)[C@H](N)[C@@H]2O)C[C@@H]2O[C@](O)(C[C@@H](O)C[C@@H](O)[C@H](O)CC[C@@H](O)C[C@@H](O)CC(=O)O[C@H]1C)C[C@H](O)[C@H]2C(=O)O [AMPHOTERICIN B]	–	–	–	–	–	–	–	–	–	–	–	–	16	–	–	–
N/C(=N/NC(CC(=O)c1ccc(-n2ccnc2)cc1)c1cccc(Cl)c1)c1ccccn1 (stereo not given)	4.5 (≈ 2 µg/mL)	18 (≈ 8.01 µg/mL)	9 (≈ 4 µg/mL)	18 (≈ 8.01 µg/mL)	72 (≈ 32 µg/mL)	68.6	inactive	22	7	11	18 (≈ 8.01 µg/mL)	72 (≈ 32 µg/mL)	–	–	–	–
NNC(=O)c1ccncc1 [ISONIAZID]	116 (≈ 15.9 µg/mL)	116 (≈ 15.9 µg/mL)	–	116 (≈ 15.9 µg/mL)	116 (≈ 15.9 µg/mL)	> 7000	–	–	–	–	0.9 (≈ 0.123 µg/mL)	> 467	–	–	–	–
N/C(=N/NC(CC(=O)c1ccc(-n2ccnc2)cc1)c1ccc(Br)cc1)c1ccccn1 (stereo not given)	2 (≈ 0.979 µg/mL)	16.3 (≈ 7.98 µg/mL)	4.1 (≈ 2.01 µg/mL)	8.2 (≈ 4.01 µg/mL)	131 (≈ 64.1 µg/mL)	298	inactive	20	6	8	16.3 (≈ 7.98 µg/mL)	131 (≈ 64.1 µg/mL)	–	18	–	–
CC(=O)OCC1=C(C(=O)O)N2C(=O)[C@@H](NC(=O)Cc3cccs3)[C@H]2SC1 [CEPHALOTHIN]	–	–	–	–	–	–	–	–	–	–	–	–	–	–	31	11
N/C(=N/NC(CC(=O)c1ccc(-n2ccnc2)cc1)c1cccc(F)c1)c1ccccn1 (stereo not given)	2.3 (≈ 0.985 µg/mL)	9.3 (≈ 3.98 µg/mL)	9.3 (≈ 3.98 µg/mL)	18.7 (≈ 8.01 µg/mL)	74.7 (≈ 32 µg/mL)	26.5	inactive	16	7	11	4.7 (≈ 2.01 µg/mL)	74.7 (≈ 32 µg/mL)	–	–	–	–
N/C(=N/NC(CC(=O)c1ccc(-n2ccnc2)cc1)c1ccc(Cl)cc1Cl)c1ccccn1 (stereo not given)	9 (≈ 4.31 µg/mL)	16.7 (≈ 8.01 µg/mL)	4.2 (≈ 2.01 µg/mL)	33.3 (≈ 16 µg/mL)	33.3 (≈ 16 µg/mL)	27.8	inactive	17	6	8	9 (≈ 4.31 µg/mL)	33.3 (≈ 16 µg/mL)	–	–	–	–
N/C(=N/NC(CC(=O)c1ccc(-n2ccnc2)cc1)c1ccc(F)cc1)c1ccccn1 (stereo not given)	18.7 (≈ 8.01 µg/mL)	18.7 (≈ 8.01 µg/mL)	9.3 (≈ 3.98 µg/mL)	18.7 (≈ 8.01 µg/mL)	74.7 (≈ 32 µg/mL)	78.8	inactive	20	6	6	9.3 (≈ 3.98 µg/mL)	74.7 (≈ 32 µg/mL)	–	–	–	–
N/C(=N/NC(CC(=O)c1ccc(-n2ccnc2)cc1)c1ccc([N+](=O)[O-])cc1)c1ccccn1 (stereo not given)	8.8 (≈ 4.01 µg/mL)	8.8 (≈ 4.01 µg/mL)	35.1 (≈ 16 µg/mL)	35.1 (≈ 16 µg/mL)	140 (≈ 63.8 µg/mL)	23.1	inactive	13	5	5	4.4 (≈ 2 µg/mL)	> 140	–	–	–	–
N/C(=N/NC(CC(=O)c1ccc(-n2ccnc2)cc1)c1ccc(Cl)cc1)c1ccccn1 (stereo not given)	4.5 (≈ 2 µg/mL)	18 (≈ 8.01 µg/mL)	9 (≈ 4 µg/mL)	18 (≈ 8.01 µg/mL)	72 (≈ 32 µg/mL)	78.8	inactive	20	8	9	9 (≈ 4 µg/mL)	72 (≈ 32 µg/mL)	–	–	–	–
N/C(=N/NC(CC(=O)c1ccc(-n2ccnc2)cc1)c1ccccc1)c1ccccn1 (stereo not given)	9.7 (≈ 3.98 µg/mL)	19.5 (≈ 8 µg/mL)	19.5 (≈ 8 µg/mL)	19.5 (≈ 8 µg/mL)	78 (≈ 32 µg/mL)	63.5	inactive	14	7	5	19.5 (≈ 8 µg/mL)	78 (≈ 32 µg/mL)	–	–	–	–
